Source: patent publication US10959986B2, “Inhibitors of indoleamine 2,3-dioxygenase and methods of their use” (BRISTOL-MYERS SQUIBB COMPANY, priority 2018, dated 2021)
Read-outs that look alike come from different tables or passages of the source.

Biological target: T1, indoleamine 2,3-dioxygenase (IDO) (Homo sapiens, UniProt P14902)
T1 construct: media containing IFNγ (#285-IF/CF, R&D Systems) at a final concentration of 25 ng/mL; endogenous in cells; host or cells: HeLa (ATCC CCL-2), induced with IFN-gamma
T1 sequence (P14902 whole entry): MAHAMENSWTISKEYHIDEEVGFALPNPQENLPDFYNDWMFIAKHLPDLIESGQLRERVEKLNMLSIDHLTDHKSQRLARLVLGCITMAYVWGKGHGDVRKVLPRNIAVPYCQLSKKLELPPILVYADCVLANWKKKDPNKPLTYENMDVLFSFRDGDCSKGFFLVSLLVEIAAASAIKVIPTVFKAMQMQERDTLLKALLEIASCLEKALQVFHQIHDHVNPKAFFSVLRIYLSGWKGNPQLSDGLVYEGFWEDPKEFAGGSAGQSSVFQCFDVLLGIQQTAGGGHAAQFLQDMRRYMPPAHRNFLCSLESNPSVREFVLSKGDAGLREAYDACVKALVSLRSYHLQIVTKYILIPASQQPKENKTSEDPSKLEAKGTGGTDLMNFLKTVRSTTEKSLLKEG
Experiment: HeLa cell-based indoleamine 2,3-dioxygenase (IDO) assay
Conditions: HeLa cells with IFNγ 25 ng/mL, 48 hour incubation, kynurenine production
Procedure: Assessment of Inhibitor Activity in HeLa Cell-Based Indoleamine 2,3-Dioxygenase (IDO) Assay.
HeLa (ATCCR CCL-2) cells were obtained from the ATCC® and cultured in Dulbecco's Modified Eagle Medium supplemented with 4.5 g/L glucose, […] L-glutamine and […] (#10-013-CV, Corning), 2 mM L-alanyl-L-glutamine dipeptide (#35050-061, Gibco), 100U/mL penicillin, 100 µg/mL streptomycin (#SV30010, HyClone) and 10% fetal bovine serum (#SH30071.03 HyClone). Cells were maintained in a humidified incubator at 37° C. in 5% CO2.
IDO activity was assessed as a function of kynurenine production as follows: HeLa cells were seeded in a 96-well culture plate at a density of 5,000 cells/well and allowed to equilibrate overnight. After 24 hours, the media was aspirated and replaced with media containing IFNγ (#285-IF/CF, R&D Systems) at a final concentration of 25 ng/mL. A serial dilution of each test compound was added to the cells in a total volume of 200 μL of culture medium. After a further 48 hour incubation, 170 μL of supernatant was transferred from each well to a fresh 96-well plate. 12.1 μL of 6. IN trichloroacetic acid (#T0699, Sigma-Aldrich) was added to each well and mixed, followed by incubation at 65° C. for 20 minutes to hydrolyze N-formylkynurenine, the product of indoleamine 2,3-dioxygenase, to kynurenine. The reaction mixture was then centrifuged for 10 mins at 500×g to sediment the precipitate. 100 μL of the supernatant was transferred from each well to a fresh 96-well plate. 100 μl of 2% (w/v) p-dimethylaminobenzaldehyde (#15647-7, Sigma-Aldrich) in acetic acid (#A6283, Sigma-Aldrich) was added to each well mixed and incubated at room temperature for 20 mins. Kynurenine concentrations were determined by measuring absorbance at 480 nm and calibrating against an L-kynurenine (#K8625, Sigma-Aldrich) standard curve using a SPECTRAMAX® M2e microplate reader (Molecular Devices). The percentage activity at each inhibitor concentration was determined and IC50 values assessed using nonlinear regression.

[1] = read-out: IDO Hela IC50 potency class (A < 50, B < 250, C < 2000)

Structure (SMILES)	IC50 (read-out: IDO Hela IC50) [nM]	IC50 [1] [nM]
CCOc1ncc(Nc2cc([C@H](CC)CC(=O)O)ccc2-c2cnn(-c3ccc(F)cc3)c2)cn1 (single isomer, unassigned) [Example 48]	340	
COC[C@H](CC(=O)O)c1ccc(-c2cncnc2)c(Nc2ccc(C#N)cc2)c1 (single isomer, unassigned) [Example 43]	≥ 1000	250 to 2000
COC[C@H](CC(=O)O)c1ccc(-c2ccc3c(c2)CCO3)c(Nc2ccc(C#N)cc2)c1 (single isomer, unassigned) [Example 40]	90	
CC[C@H](CC(=O)O)c1ccc(-c2nc(-c3ccccc3)cs2)c(Nc2ccc(Cl)cc2)c1 (single isomer, unassigned) [Example 20]	30	
CC[C@H](CC(=O)O)c1ccc(-c2cnn(C(C)C)c2)c(NC(=O)Nc2ccc(Cl)cc2F)c1 (single isomer, unassigned) [Example 24]	≥ 1000	250 to 2000
CCOc1ncc(Nc2cc([C@H](CC)CC(=O)O)ccc2-c2ccc(OC)cc2F)cn1 (single isomer, unassigned) [Example 53]	30	
CCOc1ncc(Nc2cc([C@H](CC)CC(=O)O)ccc2-c2c(C)nn(C)c2C)cn1 (single isomer, unassigned) [Example 81]	600	
CCOc1ncc(Nc2cc([C@H](CC)CC(=O)O)ccc2-c2nnc(C)s2)cn1 (single isomer, unassigned) [Example 89]	400	
CCOc1ncc(Nc2cc([C@H](CC)CC(=O)O)ccc2-c2ccc(Cl)cc2)cn1 (single isomer, unassigned) [Example 71]	110	
CCc1ncc(Nc2cc([C@H](CC)CC(=O)O)ccc2C2CCN(C(=O)OC(C)(C)C)CC2)cn1 (single isomer, unassigned) [Example 29]	130	
CCc1ncc(Nc2cc([C@H](CC)CC(=O)O)ccc2-c2cnn(C)c2)cn1 (single isomer, unassigned) [Example 13]	≥ 1000	250 to 2000
CC[C@H](CC(=O)O)c1ccc(-c2cnn(C)c2)c(Nc2ccc(C(F)(F)F)cc2)c1 (single isomer, unassigned) [Example 14]	40	
CCOc1ncc(Nc2cc([C@H](CC)CC(=O)O)ccc2-c2c(C)n[nH]c2C)cn1 (single isomer, unassigned) [Example 75]	≥ 1000	250 to 2000
CC[C@H](CC(=O)O)c1ccc(-c2nc(C)cs2)c(Nc2ccc(Cl)cc2)c1 (single isomer, unassigned) [Example 19]	≥ 1000	250 to 2000
CCOc1ncc(Nc2cc([C@H](CC)CC(=O)O)ccc2-c2ccoc2)cn1 (single isomer, unassigned) [Example 46]	40	
CCc1ncc(Nc2cc([C@@H](CC)CC(=O)O)ccc2-c2sc(C)nc2C)cn1 (single isomer, unassigned) [Example 58]	390	
CC[C@H](CC(=O)O)c1ccc(-c2cnn(C)c2)c(Nc2ccc(Cl)cn2)c1 (single isomer, unassigned) [Example 6]	470	
CCOc1ncc(Nc2cc([C@H](CC)CC(=O)O)ccc2-c2ccn3nccc3n2)cn1 (single isomer, unassigned) [Example 79]	400	
CC[C@H](CC(=O)O)c1ccc(C2CCN(C(=O)OC(C)(C)C)CC2)c(Nc2cnc(C)nc2)c1 (single isomer, unassigned) [Example 27]	820	
CCc1ncc(Nc2cc([C@H](CC)CC(=O)O)ccc2-c2sc(C)nc2C)cn1 (single isomer, unassigned) [Example 57]	110	
CCOc1ncc(Nc2cc([C@H](CC)CC(=O)O)ccc2-c2csc(-c3ccccc3)n2)cn1 (single isomer, unassigned) [Example 82]	110	
CCOc1ncc(Nc2cc(C(CC)CC(=O)O)ccc2-c2ccc(OC)c(F)c2)cn1 (single isomer, unassigned) [Example 49]	30	
CC[C@H](CC(=O)O)c1ccc(-c2cnn(C)c2)c(Nc2ccc(C#N)cn2)c1 (single isomer, unassigned) [Example 16]	≥ 1000	250 to 2000
COC[C@@H](CC(=O)O)c1ccc(-c2cnn(Cc3ccc(OC)cc3)c2)c(Nc2ccc(C#N)cc2)c1 (single isomer, unassigned) [Example 36]	30	

Structure (SMILES)	IC50 (read-out: IDO Hela IC50) [nM]	IC50 [1] [nM]
CC[C@H](CC(=O)O)c1ccc(-c2cnn(C)c2)c(Nc2ccc(Cl)c(F)c2)c1 (single isomer, unassigned) [Example 9]	20	
COC[C@H](CC(=O)O)c1ccc(-c2cnn(Cc3ccc(OC)cc3)c2)c(Nc2ccc(C#N)cc2)c1 (single isomer, unassigned) [Example 45]	50	
CCOc1ncc(Nc2cc([C@H](CC)CC(=O)O)ccc2-c2cnc(OCC)nc2)cn1 (single isomer, unassigned) [Example 64]	≥ 1000	250 to 2000
CCOc1ncc(Nc2cc([C@H](CC)CC(=O)O)ccc2-c2ncc(C)cn2)cn1 (single isomer, unassigned) [Example 69]	110	
COC[C@H](CC(=O)O)c1ccc(-c2ccoc2)c(Nc2ccc(C#N)cc2)c1 (single isomer, unassigned) [Example 39]	20	
CC[C@H](CC(=O)O)c1ccc(-c2cnn(C)c2)c(Nc2ccc(Cl)cc2F)c1 (single isomer, unassigned) [Example 2]	10	
CC[C@@H](CC(=O)O)c1ccc(C2CCN(C(=O)OC(C)(C)C)CC2)c(Nc2cnc(C)nc2)c1 (single isomer, unassigned) [Example 28]	760	
CCOc1ncc(Nc2cc([C@H](CC)CC(=O)O)ccc2-c2ccc3nc(C)sc3c2)cn1 (single isomer, unassigned) [Example 68]	500	
CC[C@H](CC(=O)O)c1ccc(-c2cnn(C)c2)c(Nc2ccc(C)cc2)c1 (single isomer, unassigned) [Example 10]	40	
CCOc1ncc(Nc2cc([C@H](CC)CC(=O)O)ccc2-c2cnn(Cc3ccc(OC)cc3)c2)cn1 (single isomer, unassigned) [Example 47]	10	
CC[C@H](CC(=O)O)c1ccc(-c2cnn(C)c2)c(Nc2ccc(Cl)cc2)c1 (single isomer, unassigned) [Example 4]	10	
CC[C@H](CC(=O)O)c1ccc(-c2cnn(C)c2)c(Nc2cccnc2)c1 (single isomer, unassigned) [Example 11]	≥ 1000	250 to 2000
CCOc1ncc(Nc2cc([C@H](CC)CC(=O)O)ccc2C2=CC3CCC(C2)N3C(=O)OC(C)(C)C)cn1 (single isomer, unassigned) [Example 56]	390	
CCOc1ncc(Nc2cc([C@H](CC)CC(=O)O)ccc2-c2nc(-c3ccccc3)cs2)cn1 (single isomer, unassigned) [Example 87]	≥ 1000	250 to 2000
CCOc1ncc(Nc2cc([C@H](CC)CC(=O)O)ccc2-c2cccc3[nH]ncc23)cn1 (single isomer, unassigned) [Example 50]	≥ 1000	250 to 2000
CC[C@H](CC(=O)O)c1ccc(-c2cnn(C)c2)c(Nc2cccc(F)c2)c1 (single isomer, unassigned) [Example 8]	380	
CCOc1ncc(Nc2cc([C@H](CC)CC(=O)O)ccc2-c2ccc3nonc3c2)cn1 (single isomer, unassigned) [Example 78]	≥ 1000	250 to 2000
CC[C@H](CC(=O)O)c1ccc(C2CCN(C(=O)OC(C)(C)C)CC2)c(Nc2ccc(C#N)cc2)c1 (single isomer, unassigned) [Example 30]		< 50
COC[C@@H](CC(=O)O)c1ccc(-c2cnn(C)c2)c(Nc2ccc(C#N)cc2)c1 (single isomer, unassigned) [Example 33, 3-(3-((4-cyanophenyl)amino)-4-(1-methyl-1H-pyrazol-4-yl)phenyl)-4-methoxybutanoic Acid]	≥ 1000	250 to 2000
CC[C@H](CC(=O)O)c1ccc(-c2nnc(C)s2)c(Nc2ccc(Cl)cc2)c1 (single isomer, unassigned) [Example 22]	30	
CCOc1cnc(-c2ccc([C@H](CC)CC(=O)O)cc2Nc2cnc(OCC)nc2)cn1 (single isomer, unassigned) [Example 74]	450	
COC[C@@H](CC(=O)O)c1ccc(-c2sc(C)nc2C)c(Nc2ccc(C#N)cc2)c1 (single isomer, unassigned) [Example 59]	220	
COC[C@@H](CC(=O)O)c1ccc(-c2ccoc2)c(Nc2ccc(C#N)cc2)c1 (single isomer, unassigned) [Example 35]	10	
